Results published in patent publication US20240132521A1, “COMPOUNDS AND METHODS FOR MODULATING HER2” (Iambic Therapeutics, Inc., priority 2022, published 2024).

What was measured:
Type in all cases: cell-based
BaF3_HER2WT cells = BaF3_HER2WT cells (Homo sapiens, UniProt P04626); test: Cell growth inhibition assay (CellTiterGlo), BaF3_HER2WT; conditions: 3-day treatment, CellTiterGlo, read-out: Cell growth inhibition activity, HER2 WT
BaF3_HER2YVMA cells = BaF3_HER2YVMA cells (Homo sapiens, UniProt P04626, DUP772-775, cells depend on it); test: Cell growth inhibition assay (CellTiterGlo), BaF3_HER2YVMA; conditions: 3-day treatment, CellTiterGlo, read-out: Cell growth inhibition activity, HER2 - YVMA
BaF3_EGFRWT cells = BaF3_EGFRWT cells (Homo sapiens, UniProt P00533); test: Cell growth inhibition assay (CellTiterGlo), BaF3_EGFRWT; conditions: 3-day treatment, CellTiterGlo, read-out: Cell growth inhibition activity, EGFR WT
Sequence of BaF3_EGFRWT cells (P00533 whole entry, change not shown): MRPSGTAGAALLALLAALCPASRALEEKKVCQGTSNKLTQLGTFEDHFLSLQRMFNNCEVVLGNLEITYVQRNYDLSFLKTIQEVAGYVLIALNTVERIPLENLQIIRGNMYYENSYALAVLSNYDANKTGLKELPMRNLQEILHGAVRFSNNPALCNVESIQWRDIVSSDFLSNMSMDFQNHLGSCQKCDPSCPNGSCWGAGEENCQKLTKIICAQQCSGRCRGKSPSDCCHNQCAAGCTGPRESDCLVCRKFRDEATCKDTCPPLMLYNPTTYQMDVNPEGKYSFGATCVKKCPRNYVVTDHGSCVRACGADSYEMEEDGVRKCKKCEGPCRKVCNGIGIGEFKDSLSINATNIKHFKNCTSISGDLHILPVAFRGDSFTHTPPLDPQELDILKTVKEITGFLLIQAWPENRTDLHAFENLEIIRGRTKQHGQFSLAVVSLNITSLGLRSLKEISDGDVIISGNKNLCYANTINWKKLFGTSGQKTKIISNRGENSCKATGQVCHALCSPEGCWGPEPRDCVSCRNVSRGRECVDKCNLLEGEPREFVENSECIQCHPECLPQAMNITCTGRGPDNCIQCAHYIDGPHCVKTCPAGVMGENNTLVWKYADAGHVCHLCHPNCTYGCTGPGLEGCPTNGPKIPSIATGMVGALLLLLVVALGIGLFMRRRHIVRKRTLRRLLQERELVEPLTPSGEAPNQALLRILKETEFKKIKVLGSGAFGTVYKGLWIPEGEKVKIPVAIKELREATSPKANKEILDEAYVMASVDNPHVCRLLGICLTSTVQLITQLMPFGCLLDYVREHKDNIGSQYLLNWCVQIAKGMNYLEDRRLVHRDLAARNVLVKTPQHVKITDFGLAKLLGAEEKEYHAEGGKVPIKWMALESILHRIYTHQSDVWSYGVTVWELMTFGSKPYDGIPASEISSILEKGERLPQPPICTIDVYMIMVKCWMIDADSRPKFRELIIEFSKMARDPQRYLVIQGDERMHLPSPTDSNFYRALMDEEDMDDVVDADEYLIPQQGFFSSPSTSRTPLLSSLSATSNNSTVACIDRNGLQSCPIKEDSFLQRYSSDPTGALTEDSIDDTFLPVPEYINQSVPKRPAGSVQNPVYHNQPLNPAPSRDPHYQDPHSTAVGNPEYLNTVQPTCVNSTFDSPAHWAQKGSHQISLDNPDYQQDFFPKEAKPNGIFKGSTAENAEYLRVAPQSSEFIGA

Sequence of BaF3_HER2WT cells (P04626 whole entry, change not shown): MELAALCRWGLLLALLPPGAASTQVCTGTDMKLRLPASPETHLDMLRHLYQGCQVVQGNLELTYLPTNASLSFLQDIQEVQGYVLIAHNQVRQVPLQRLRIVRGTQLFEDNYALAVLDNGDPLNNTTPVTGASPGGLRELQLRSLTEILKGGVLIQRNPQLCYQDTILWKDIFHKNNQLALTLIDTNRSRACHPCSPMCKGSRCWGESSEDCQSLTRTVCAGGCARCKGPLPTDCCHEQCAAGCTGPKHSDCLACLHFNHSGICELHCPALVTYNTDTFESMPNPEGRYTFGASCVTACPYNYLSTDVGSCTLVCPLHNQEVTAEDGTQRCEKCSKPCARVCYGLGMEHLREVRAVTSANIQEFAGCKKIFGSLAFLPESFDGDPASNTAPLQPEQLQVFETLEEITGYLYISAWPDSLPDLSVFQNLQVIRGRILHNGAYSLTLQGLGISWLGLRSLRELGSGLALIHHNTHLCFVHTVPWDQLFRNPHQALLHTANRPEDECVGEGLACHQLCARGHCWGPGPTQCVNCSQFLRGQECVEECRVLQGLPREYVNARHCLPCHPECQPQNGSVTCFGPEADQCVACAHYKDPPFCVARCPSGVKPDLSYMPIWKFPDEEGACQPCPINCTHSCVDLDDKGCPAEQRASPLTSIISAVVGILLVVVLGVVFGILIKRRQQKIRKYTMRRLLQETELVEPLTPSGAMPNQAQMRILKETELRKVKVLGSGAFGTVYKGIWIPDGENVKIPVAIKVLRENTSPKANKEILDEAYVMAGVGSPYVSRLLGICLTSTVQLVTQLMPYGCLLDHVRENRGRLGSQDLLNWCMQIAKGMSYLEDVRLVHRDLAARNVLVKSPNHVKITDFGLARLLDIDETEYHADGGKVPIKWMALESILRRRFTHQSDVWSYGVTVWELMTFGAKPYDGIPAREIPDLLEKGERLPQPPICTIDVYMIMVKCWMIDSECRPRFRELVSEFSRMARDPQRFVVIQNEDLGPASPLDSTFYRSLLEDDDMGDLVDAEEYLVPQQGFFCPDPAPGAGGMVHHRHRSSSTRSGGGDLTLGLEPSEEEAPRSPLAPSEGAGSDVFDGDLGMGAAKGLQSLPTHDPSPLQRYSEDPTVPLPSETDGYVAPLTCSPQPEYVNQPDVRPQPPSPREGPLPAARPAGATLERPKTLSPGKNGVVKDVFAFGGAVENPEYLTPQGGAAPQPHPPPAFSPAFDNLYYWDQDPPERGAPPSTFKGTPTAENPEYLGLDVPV
Sequence of BaF3_HER2YVMA cells (P04626 with tags, fused parts or gaps DUP772-775): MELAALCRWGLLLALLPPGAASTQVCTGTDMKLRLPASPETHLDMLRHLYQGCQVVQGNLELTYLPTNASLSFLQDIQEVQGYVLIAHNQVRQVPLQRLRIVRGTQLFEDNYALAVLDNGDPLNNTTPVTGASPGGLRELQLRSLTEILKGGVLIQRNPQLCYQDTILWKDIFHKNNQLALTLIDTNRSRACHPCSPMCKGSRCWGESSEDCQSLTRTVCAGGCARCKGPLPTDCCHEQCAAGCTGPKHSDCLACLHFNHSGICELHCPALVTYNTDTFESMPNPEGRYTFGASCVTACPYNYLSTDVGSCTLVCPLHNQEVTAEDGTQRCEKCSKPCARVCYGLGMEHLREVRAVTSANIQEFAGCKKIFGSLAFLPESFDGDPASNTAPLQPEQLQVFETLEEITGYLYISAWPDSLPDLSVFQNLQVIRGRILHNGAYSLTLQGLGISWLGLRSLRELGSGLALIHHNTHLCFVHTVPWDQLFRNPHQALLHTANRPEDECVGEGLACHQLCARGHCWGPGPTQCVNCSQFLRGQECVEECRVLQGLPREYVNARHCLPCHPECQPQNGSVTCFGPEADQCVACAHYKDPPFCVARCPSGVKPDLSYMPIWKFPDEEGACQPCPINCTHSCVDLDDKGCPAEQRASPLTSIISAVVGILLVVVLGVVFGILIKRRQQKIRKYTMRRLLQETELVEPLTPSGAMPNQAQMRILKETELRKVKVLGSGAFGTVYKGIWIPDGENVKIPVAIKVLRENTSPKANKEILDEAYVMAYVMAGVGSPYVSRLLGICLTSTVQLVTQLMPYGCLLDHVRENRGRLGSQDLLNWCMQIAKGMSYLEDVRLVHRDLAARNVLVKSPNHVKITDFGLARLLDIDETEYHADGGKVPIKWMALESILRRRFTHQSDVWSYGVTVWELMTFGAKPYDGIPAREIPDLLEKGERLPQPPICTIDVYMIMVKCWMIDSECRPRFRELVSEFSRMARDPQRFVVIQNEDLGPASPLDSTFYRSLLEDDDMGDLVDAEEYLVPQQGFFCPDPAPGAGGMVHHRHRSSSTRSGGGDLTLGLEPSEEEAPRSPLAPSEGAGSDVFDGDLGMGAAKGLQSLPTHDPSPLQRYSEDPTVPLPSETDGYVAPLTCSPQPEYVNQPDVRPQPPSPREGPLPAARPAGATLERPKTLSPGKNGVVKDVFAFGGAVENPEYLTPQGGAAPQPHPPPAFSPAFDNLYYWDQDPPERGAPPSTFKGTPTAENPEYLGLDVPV

Row | GI50 (BaF3_HER2WT cells) | GI50 (BaF3_HER2YVMA cells) | GI50 (BaF3_EGFRWT cells) | SMILES
1 | 500 to 1500 nM | 1500 to 5000 nM | 1500 to 5000 nM | C=C(C#N)C(=O)N1CCC(c2ccn3ncnc(Nc4ccc(Oc5ccn6ncnc6c5)c(C)c4)c23)CC1 [Example 27, 2-(4-(4-((4-([1,2,4]triazolo[1,5-a]pyridin-7-yloxy)-3-methylphenyl)amino)pyrrolo[2,1-f][1,2,4]triazin-5-yl)piperidine-1-carbonyl)acrylonitrile]
2 | < 200 nM | 500 to 1500 nM | 1500 to 5000 nM | C=CC(=O)N1CC=C(c2ccn3ncnc(Nc4ccc(Oc5ccn6ncnc6c5)c(C)c4)c23)C1 [Example 28, 1-(3-(4-((4-([1,2,4]triazolo[1,5-a]pyridin-7-yloxy)-3-methylphenyl)amino)pyrrolo[2,1-f][1,2,4]triazin-5-yl)-2,5-dihydro-1H-pyrrol-1-yl)prop-2-en-1-one acetate]
3 | < 200 nM | 1500 to 5000 nM | 1500 to 5000 nM | Cc1cc(Nc2ncnn3ccc(C4=CCN(C(=O)/C=C/CN(C)C)C4)c23)ccc1Oc1ccn2ncnc2c1 [Example 29, (E)-1-(3-(4-((4-([1,2,4]triazolo[1,5-a]pyridin-7-yloxy)-3-methylphenyl)amino)pyrrolo[2,1-f][1,2,4]triazin-5-yl)-2,5-dihydro-1H-pyrrol-1-yl)-4-(dimethylamino)but-2-en-1-one acetate]
4 | < 200 nM | 200 to 500 nM | 1500 to 5000 nM | Cc1cc(Nc2ccn3ncnc(C4CC5CCC(C4)N5C(=O)/C=C/CN(C)C)c23)ccc1Oc1ccn2cnnc2c1 (stereo not drawn) [Example 33, (E)-1-(3-(5-((4-([1,2,4]triazolo[4,3-a]pyridin-7-yloxy)-3-methylphenyl)amino)pyrrolo[2,1-f][1,2,4]triazin-4-yl)-8-azabicyclo[3.2.1]octan-8-yl)-4-(dimethylamino)but-2-en-1-one acetate]
5 | < 200 nM | < 200 nM | 1500 to 5000 nM | Cc1cc(Nc2ncnn3ccc(C4CCN(C(=O)C(F)Cl)CC4)c23)ccc1Oc1ccn2ncnc2c1 (stereo not drawn) [Example 35, 1-(4-(4-((4-([1,2,4]triazolo[1,5-a]pyridin-7-yloxy)-3-methylphenyl)amino)pyrrolo[2,1-f][1,2,4]triazin-5-yl)piperidin-1-yl)-2-chloro-2-fluoroethan-1-one acetate]
6 | 1500 to 5000 nM | 1500 to 5000 nM | 1500 to 5000 nM | Cc1cc(Nc2ncnn3ccc(C4CCN(C(=O)C5CC(=O)N5)CC4)c23)ccc1Oc1ccn2ncnc2c1 (stereo not drawn) [Example 36, 4-(4-(4-((4-([1,2,4]triazolo[1,5-a]pyridin-7-yloxy)-3-methylphenyl)amino)pyrrolo[2,1-f][1,2,4]triazin-5-yl)piperidine-1-carbonyl)azetidin-2-one acetate]
7 | < 200 nM | < 200 nM | 1500 to 5000 nM | Cc1cc(Nc2ncnn3ccc(C4CN(C(=O)/C=C/CN5CCOCC5)C4)c23)ccc1Oc1ccn2ncnc2c1 [Example 37, (E)-1-(3-(4-((4-([1,2,4]triazolo[1,5-a]pyridin-7-yloxy)-3-methylphenyl)amino)pyrrolo[2,1-f][1,2,4]triazin-5-yl)azetidin-1-yl)-4-morpholinobut-2-en-1-one]
8 | < 200 nM | < 200 nM | 1500 to 5000 nM | Cc1cc(Nc2ncnn3ccc(C4CN(C(=O)/C=C/CN5CC(F)C5)C4)c23)ccc1Oc1ccn2ncnc2c1 [Example 38, (E)-1-(3-(4-((4-([1,2,4]triazolo[1,5-a]pyridin-7-yloxy)-3-methylphenyl)amino)pyrrolo[2,1-f][1,2,4]triazin-5-yl)azetidin-1-yl)-4-(3-fluoroazetidin-1-yl)but-2-en-1-one]
9 | 200 to 500 nM | 200 to 500 nM | 1500 to 5000 nM | COC/C=C/C(=O)N1CC(c2ccn3ncnc(Nc4ccc(Oc5ccn6ncnc6c5)c(C)c4)c23)C1 [Example 40, (E)-1-(3-(4-((4-([1,2,4]triazolo[1,5-a]pyridin-7-yloxy)-3-methylphenyl)amino)pyrrolo[2,1-f][1,2,4]triazin-5-yl)azetidin-1-yl)-4-methoxybut-2-en-1-one]
10 | < 200 nM | < 200 nM | 1500 to 5000 nM | COC1CCN(C/C=C/C(=O)N2CC(c3ccn4ncnc(Nc5ccc(Oc6ccn7ncnc7c6)c(C)c5)c34)C2)C1 (stereo not drawn) [Example 41, (E)-1-(3-(4-((4-([1,2,4]triazolo[1,5-a]pyridin-7-yloxy)-3-methylphenyl)amino)pyrrolo[2,1-f][1,2,4]triazin-5-yl)azetidin-1-yl)-4-(3-methoxypyrrolidin-1-yl)but-2-en-1-one]
11 | < 200 nM | < 200 nM | 1500 to 5000 nM | COC1CCN(C/C=C/C(=O)N2CC(c3ccn4ncnc(Nc5ccc(Oc6ccn7ncnc7c6)c(C)c5)c34)C2)CC1 [Example 42, (E)-1-(3-(4-((4-([1,2,4]triazolo[1,5-a]pyridin-7-yloxy)-3-methylphenyl)amino)pyrrolo[2,1-f][1,2,4]triazin-5-yl)azetidin-1-yl)-4-(4-methoxypiperidin-1-yl)but-2-en-1-one]
12 | < 200 nM | 200 to 500 nM | 1500 to 5000 nM | Cc1cc(Nc2ncnn3ccc(C4CN(C(=O)/C=C/CC(C)C)C4)c23)ccc1Oc1ccn2ncnc2c1 [Example 43, (E)-1-(3-(4-((4-([1,2,4]triazolo[1,5-a]pyridin-7-yloxy)-3-methylphenyl)amino)pyrrolo[2,1-f][1,2,4]triazin-5-yl)azetidin-1-yl)-5-methylhex-2-en-1-one]
13 | < 200 nM | < 200 nM | 1500 to 5000 nM | C=CC(=O)N1CC2CCC(C1)N2c1ccn2ncnc(Nc3ccc(Oc4ccn5ncnc5c4)c(C)c3)c12 [Example 44, 1-(8-(4-((4-([1,2,4]triazolo[1,5-a]pyridin-7-yloxy)-3-methylphenyl)amino)pyrrolo[2,1-f][1,2,4]triazin-5-yl)-3,8-diazabicyclo[3.2.1]octan-3-yl)prop-2-en-1-one]
14 | < 200 nM | < 200 nM | 1500 to 5000 nM | Cc1cc(Nc2ncnn3ccc(N4C5CCC4CN(C(=O)/C=C/CN(C)C)C5)c23)ccc1Oc1ccn2ncnc2c1 [Example 45, (E)-1-(8-(4-((4-([1,2,4]triazolo[1,5-a]pyridin-7-yloxy)-3-methylphenyl)amino)pyrrolo[2,1-f][1,2,4]triazin-5-yl)-3,8-diazabicyclo[3.2.1]octan-3-yl)-4-(dimethylamino)but-2-en-1-one]
15 | < 200 nM | < 200 nM | 200 to 500 nM | C=CC(=O)N1C2CCC1CN(c1ccn3ncnc(Nc4ccc(Oc5ccn6ncnc6c5)c(C)c4)c13)C2 [Example 46, 1-(3-(4-((4-([1,2,4]triazolo[1,5-a]pyridin-7-yloxy)-3-methylphenyl)amino)pyrrolo[2,1-f][1,2,4]triazin-5-yl)-3,8-diazabicyclo[3.2.1]octan-8-yl)prop-2-en-1-one]
16 | < 200 nM | < 200 nM | 1500 to 5000 nM | Cc1cc(Nc2ncnn3ccc(N4CC5CCC(C4)N5C(=O)/C=C/CN(C)C)c23)ccc1Oc1ccn2ncnc2c1 [Example 47, (E)-1-(3-(4-((4-([1,2,4]triazolo[1,5-a]pyridin-7-yloxy)-3-methylphenyl)amino)pyrrolo[2,1-f][1,2,4]triazin-5-yl)-3,8-diazabicyclo[3.2.1]octan-8-yl)-4-(dimethylamino)but-2-en-1-one]
17 | 200 to 500 nM | 1500 to 5000 nM | 1500 to 5000 nM | C=C(CN(C)C)C(=O)N1C2CCC1CN(c1ccn3ncnc(Nc4ccc(Oc5ccn6ncnc6c5)c(C)c4)c13)C2 [Example 48, 1-(3-(4-((4-([1,2,4]triazolo[1,5-a]pyridin-7-yloxy)-3-methylphenyl)amino)pyrrolo[2,1-f][1,2,4]triazin-5-yl)-3,8-diazabicyclo[3.2.1]octan-8-yl)-2-((dimethylamino)methyl)prop-2-en-1-one]
18 | < 200 nM | < 200 nM | 1500 to 5000 nM | C=C(CN(C)C)C(=O)N1CC2CCC(C1)N2c1ccn2ncnc(Nc3ccc(Oc4ccn5ncnc5c4)c(C)c3)c12 [Example 49, 1-(8-(4-((4-([1,2,4]triazolo[1,5-a]pyridin-7-yloxy)-3-methylphenyl)amino)pyrrolo[2,1-f][1,2,4]triazin-5-yl)-3,8-diazabicyclo[3.2.1]octan-3-yl)-2-((dimethylamino)methyl)prop-2-en-1-one acetate]
19 | 200 to 500 nM | 500 to 1500 nM | 1500 to 5000 nM | Cc1cc(Nc2ncnn3ccc(C4(O)CCN(C(=O)/C=C/CN(C)C)CC4)c23)ccc1Oc1ccn2ncnc2c1 [Example 50, (E)-1-(4-(4-((4-([1,2,4]triazolo[1,5-a]pyridin-7-yloxy)-3-methylphenyl)amino)pyrrolo[2,1-f][1,2,4]triazin-5-yl)-4-hydroxypiperidin-1-yl)-4-(dimethylamino)but-2-en-1-one]
20 | < 200 nM | < 200 nM | 1500 to 5000 nM | Cc1cc(Nc2ncnn3ccc(C4(O)CN(C(=O)/C=C/CN(C)C)C4)c23)ccc1Oc1ccn2ncnc2c1 [Example 51, (E)-1-(3-(4-((4-([1,2,4]triazolo[1,5-a]pyridin-7-yloxy)-3-methylphenyl)amino)pyrrolo[2,1-f][1,2,4]triazin-5-yl)-3-hydroxyazetidine-1-yl)-4-(dimethylamino)but-2-en-1-one]

Row | SMILES | GI50 (BaF3_HER2WT cells) | GI50 (BaF3_HER2YVMA cells) | GI50 (BaF3_EGFRWT cells)
21 | C=C(CN(C)C)C(=O)N1C2C=C(c3ccn4ncnc(Nc5ccc(Oc6ccn7ncnc7c6)c(C)c5)c34)CC1CC2 (stereo not drawn) [Example 30, 1-(3-(4-((4-([1,2,4]triazolo[1,5-a]pyridin-7-yloxy)-3-methylphenyl)amino)pyrrolo[2,1-f][1,2,4]triazin-5-yl)-8-azabicyclo[3.2.1]oct-2-en-8-yl)-2-((dimethylamino)methyl)prop-2-en-1-one acetate] | < 200 nM | < 200 nM | 1500 to 5000 nM
